Experimental data published in patent US20240009209A1, “PROTEIN-BOUND CANNABINOID FORMULATIONS AND USES THEREOF” (YISSUM RESEARCH DEVELOPMENT COMPANY OF THE HEBREW …, priority 2020, published 2024).

Experiment: Plasma CBD after IV administration
Format: in vivo, BALB/C mice
Conditions: mice, IV 12 mg/kg
Protocol: A total of 18 female BALB/C mice aged 12 weeks were injected IV with a single dose of 12 mg/kg CBD formulation in cremophor:ethanol.
At the time-points detailed below, 3 mice were euthanized with CO2 and terminal blood was immediately collected from the retro-orbital sinus in labeled 0.5 ml K3 EDTA blood collection tubes (Mini Collect, Greiner-bio-one, Austria). The blood was centrifuged at 2000×g for 10 minutes before plasma was extracted, collected in labeled tubes and frozen at −20° C. immediately after collection. The samples were then stored at −80° C. pending analysis.
Time-points for the blood collection: 2 min, 1, 4, 8, 24 and 48 h.
CBD was extracted from plasma samples that were spiked with cannabigerol (CBG, 1 mg/ml in methanol, Sigma, Cat. C-141-1 Add lot) used as internal standard (IS) followed by dilution of the plasma five-fold in acetonitrile. After vigorous vortex it was centrifuged, and the upper phase was analyzed. Final IS concentration in the samples was 100 ng/ml.
Plasma extracts were analyzed by LC/MS method (Sciex (Framingham, MA, USA) Triple Quad™ 5500 mass spectrometer coupled with a Shimadzu (Kyoto, Japan) UHPLC System). The concentrations were calculated based on a calibration curve of CBD in plasma at a range of 1-1,000 ng/ml having 100 ng/ml of Internal Standard (IS).

In the case of `C=C(C)[C@@H]1CCC(C)=C[C@H]1c1c(O)cc(CCCCC)cc1O` [free CBD, 2-[(1R,6R)-6-Isopropenyl-3-methylcyclohex-2-en1-yl]-5-pentylbenzene-1,3-diol], the “Plasma CBD Mean ± SD” value (24 h) is reported as “BLOD”, the “Plasma CBD Mean ± SD” value (24 h, listed as CBD) is reported as “below the limit of detection” and the “Plasma CBD Mean ± SD” value (48 h) is reported as “BLOD”. The “Plasma CBD Mean ± SD” value (48 h, listed as CBD) was “below the limit of detection”.
